Measured values: patent US20240401154A1, “SYNTHESIS AND PREPARATION OF ULTRA-LOW VISCOSITY AND HIGH MAGNETIC SUSCEPTIBILITY MAGNETIC IONIC LIQUIDS” (priority 2023, published 2024)
Marks after values point to notes of the source that are not given here.

Key:
Type in all cases: physicochemical
[1] = Viscosity, Brookfield DVI cone and plate viscometer; conditions: 21.7° C.; neat MIL dried 48 hours under vacuum
Protocol: A Brookfield DVI cone and plate viscometer equipped with a CPA-51Z cone spindle was employed to obtain viscosity measurements at […] using approximately 0.5 g of each MIL after extensive drying for 48 hours under vacuum. Viscosity measurements were conducted at 21.7° C. for 15 lanthanide and transition metal MILs examined in this study.
Viscosity measurements were conducted at 21.7° C. for 15 lanthanide and transition metal MILs examined in this study.

[2] = Solubility of MILs in organic solvents and water
Source text: The solubility of lanthanide and transition metal MILs was investigated in popular traditional organic solvents. […]
The solubility of lanthanide and transition metal MILs was investigated in popular traditional organic solvents.

[3] = Effective magnetic moment from magnetic susceptibility balance (MSB); conditions: per formula unit
Protocol: Magnetic properties were analyzed using a magnetic susceptibility balance (MSB, Sherwood Scientific, Cambridge, UK) and a Quantum Design Superconducting Quantum Interference Device (SQUID) magnetometer (MPMS XL-7). The magnetic properties of transition metal MILs were further studied using a SQUID magnetometer to confirm their paramagnetic nature as well as if any magnetic transition occurs in the samples.
Magnetic susceptibility (XM) was calculated through Equation (1).
Effective magnetic moment (μeff) was calculated through Equation (2). In Equation (2), T represents the temperature at which the magnetic susceptibility measurements were conducted.
15 MILs incorporating rare-earth and transition metals were examined using a magnetic susceptibility balance (MSB).

[4] = Thermal stability, MIL as GC stationary phase with FID; conditions: exponential increase in response beyond 2,000 pA
Protocol: (§1) The thermal stability of MILs was measured from 40 to 350° C. at a ramp rate of 5° C. min^−1 by performing thermogravimetric analysis (TGA) using a NETZSCH STA 449 F1 Jupiter thermal analyzer (Selb, Germany). To further investigate the thermal stability of MILs using a more sensitive technique, the solvents were employed as a gas chromatographic (GC) stationary phase and subjected to an oven temperature program from 40 to 200° C. at a ramp rate of 1° C. min^−1 and decomposition/degradation products detected using an ultra-sensitive flame ionization detector (FID), with all measurements being performed on an Agilent Technologies 7890B gas chromatograph (Santa Clara, CA, USA).
To further investigate the thermal stability of MILs using a more sensitive technique, the solvents were employed as a gas chromatographic (GC) stationary phase and subjected to an oven temperature program from 40 to 200° C. at a ramp rate of 1° C. min^−1 and decomposition/degradation products detected using an ultra-sensitive flame ionization detector (FID).

[5] = Thermal stability by thermogravimetric analysis (TGA); conditions: TGA at 10% weight loss
Protocol: as §1
Volitization/degradation of MILs as a function of temperature were measured using thermogravimetric analysis. The thermal stability of magnetic ionic liquids was measured from 40 to 350° C. at a ramp rate of 5° C. min^−1 by performing thermogravimetric analysis (TGA) using a NETZSCH STA 449 F1 Jupiter thermal analyzer (Selb, Germany).
To investigate the ability of DGE-based MILs to withstand elevated temperatures without undergoing degradation/decomposition, their thermal stabilities were investigated using thermogravimetric analysis (TGA). FIG. 13 through FIG. 27 display thermograms for MILs 1 to 15. The thermogram results are summarized in greater detail in the following paragraphs.

[6] = acetone, chloroform, dichloromethane, acetonitrile, methanol, ethanol, diethyl ether, ethyl acetate, isopropanol at 20% (w/v)
[7] = hexane, heptane, benzene, toluene at 10% (w/v)
[8] = hexane, heptane, benzene, toluene at 20% (w/v)
[9] = twelve organic solvents (without acetonitrile) at 50% (w/v)

SMILES | Viscosity (cP) [1] | Solubility [2, 6] | Solubility [2, 7] | Solubility [2, 8] | Solubility [2, 9] | Solubility ([2]; water at 0.01% (w/v)) | μeff, effective magnetic moment [3] | Onset of MIL volatilization (° C.)^1 [4] | Onset of MIL volatilization (° C.)^2 [5] | Onset of MIL volatilization (° C.)^1 ([4]; listed as [Co(C8-DGE)6][Ho(hfacac)4]2) | Onset of MIL volatilization (° C.)^1 ([4]; listed as [Co(C8-DGE)6][Gd(hfacac)4]2)
CCCCCCCCOC(=O)COCC(=O)OCCCCCCCC.CCCCCCCCOC(=O)COCC(=O)OCCCCCCCC.CCCCCCCCOC(=O)COCC(=O)OCCCCCCCC.CCCCCCCCOC(=O)COCC(=O)OCCCCCCCC.CCCCCCCCOC(=O)COCC(=O)OCCCCCCCC.CCCCCCCCOC(=O)COCC(=O)OCCCCCCCC.O=C(C=C([O-])C(F)(F)F)C(F)(F)F.O=C(C=C([O-])C(F)(F)F)C(F)(F)F.O=C(C=C([O-])C(F)(F)F)C(F)(F)F.O=C(C=C([O-])C(F)(F)F)C(F)(F)F.O=C(C=C([O-])C(F)(F)F)C(F)(F)F.O=C(C=C([O-])C(F)(F)F)C(F)(F)F.[Co+2].[Co+2].[Co+2] [compound 4] | 31.6 cP | S^b (soluble in acetone, chloroform, dichloromethane, acetonitrile, methanol, ethanol, diethyl ether, ethyl acetate, and isopropanol at 20% (w/v).) | S^a (soluble in hexane, heptane, benzene, and toluene at 10% (w/v).) | S^c (soluble in hexane, heptane, benzene, and toluene at 20% (w/v).) | S^d (soluble in acetone, chloroform, dichloromethane, methanol, ethanol, diethyl ether, ethyl acetate, isopropanol hexane, heptane, benzene, and toluene at 50% (w/v).) | S^f (insoluble in water at 0.01% (w/v).) | 8.57 μB | 185 °C | 262.9 °C |  | 
CCCCCCCCOC(=O)c1ccc(C(=O)OCCCCCCCC)o1.CCCCCCCCOC(=O)c1ccc(C(=O)OCCCCCCCC)o1.CCCCCCCCOC(=O)c1ccc(C(=O)OCCCCCCCC)o1.CCCCCCCCOC(=O)c1ccc(C(=O)OCCCCCCCC)o1.CCCCCCCCOC(=O)c1ccc(C(=O)OCCCCCCCC)o1.CCCCCCCCOC(=O)c1ccc(C(=O)OCCCCCCCC)o1.O=C(C=C([O-])C(F)(F)F)C(F)(F)F.O=C(C=C([O-])C(F)(F)F)C(F)(F)F.O=C(C=C([O-])C(F)(F)F)C(F)(F)F.O=C(C=C([O-])C(F)(F)F)C(F)(F)F.O=C(C=C([O-])C(F)(F)F)C(F)(F)F.O=C(C=C([O-])C(F)(F)F)C(F)(F)F.[Mn+2].[Mn+2].[Mn+2] [compound 12] | 291.8^b cP | S^b (soluble in acetone, chloroform, dichloromethane, acetonitrile, methanol, ethanol, diethyl ether, ethyl acetate, and isopropanol at 20% (w/v).) | S^a (soluble in hexane, heptane, benzene, and toluene at 10% (w/v).) | S^c (soluble in hexane, heptane, benzene, and toluene at 20% (w/v).) | S^d (soluble in acetone, chloroform, dichloromethane, methanol, ethanol, diethyl ether, ethyl acetate, isopropanol hexane, heptane, benzene, and toluene at 50% (w/v).) | S^f (insoluble in water at 0.01% (w/v).) | 10.04 μB | 144 °C | 160.4 °C |  | 
CCCCCCCCOC(=O)c1ccc(C(=O)OCCCCCCCC)o1.CCCCCCCCOC(=O)c1ccc(C(=O)OCCCCCCCC)o1.CCCCCCCCOC(=O)c1ccc(C(=O)OCCCCCCCC)o1.CCCCCCCCOC(=O)c1ccc(C(=O)OCCCCCCCC)o1.CCCCCCCCOC(=O)c1ccc(C(=O)OCCCCCCCC)o1.CCCCCCCCOC(=O)c1ccc(C(=O)OCCCCCCCC)o1.O=C(C=C([O-])C(F)(F)F)C(F)(F)F.O=C(C=C([O-])C(F)(F)F)C(F)(F)F.O=C(C=C([O-])C(F)(F)F)C(F)(F)F.O=C(C=C([O-])C(F)(F)F)C(F)(F)F.O=C(C=C([O-])C(F)(F)F)C(F)(F)F.O=C(C=C([O-])C(F)(F)F)C(F)(F)F.[Ni+2].[Ni+2].[Ni+2] [compound 11] | 453.5^b cP | S^b (soluble in acetone, chloroform, dichloromethane, acetonitrile, methanol, ethanol, diethyl ether, ethyl acetate, and isopropanol at 20% (w/v).) | S^a (soluble in hexane, heptane, benzene, and toluene at 10% (w/v).) | S^c (soluble in hexane, heptane, benzene, and toluene at 20% (w/v).) | S^d (soluble in acetone, chloroform, dichloromethane, methanol, ethanol, diethyl ether, ethyl acetate, isopropanol hexane, heptane, benzene, and toluene at 50% (w/v).) | S^f (insoluble in water at 0.01% (w/v).) | 5.51 μB | 142 °C | 160.6 °C |  | 
CCCCCCCCOC(=O)COCC(=O)OCCCCCCCC.CCCCCCCCOC(=O)COCC(=O)OCCCCCCCC.CCCCCCCCOC(=O)COCC(=O)OCCCCCCCC.CCCCCCCCOC(=O)COCC(=O)OCCCCCCCC.CCCCCCCCOC(=O)COCC(=O)OCCCCCCCC.CCCCCCCCOC(=O)COCC(=O)OCCCCCCCC.O=C(C=C([O-])C(F)(F)F)C(F)(F)F.O=C(C=C([O-])C(F)(F)F)C(F)(F)F.O=C(C=C([O-])C(F)(F)F)C(F)(F)F.O=C(C=C([O-])C(F)(F)F)C(F)(F)F.O=C(C=C([O-])C(F)(F)F)C(F)(F)F.O=C(C=C([O-])C(F)(F)F)C(F)(F)F.[Ni+2].[Ni+2].[Ni+2] [compound 5] | 119.1 cP | S^b (soluble in acetone, chloroform, dichloromethane, acetonitrile, methanol, ethanol, diethyl ether, ethyl acetate, and isopropanol at 20% (w/v).) | S^a (soluble in hexane, heptane, benzene, and toluene at 10% (w/v).) | S^c (soluble in hexane, heptane, benzene, and toluene at 20% (w/v).) | S^d (soluble in acetone, chloroform, dichloromethane, methanol, ethanol, diethyl ether, ethyl acetate, isopropanol hexane, heptane, benzene, and toluene at 50% (w/v).) | S^f (insoluble in water at 0.01% (w/v).) | 5.33 μB | 190 °C | 264.4 °C |  | 
CCCCCCCCOC(=O)COCC(=O)OCCCCCCCC.CCCCCCCCOC(=O)COCC(=O)OCCCCCCCC.CCCCCCCCOC(=O)COCC(=O)OCCCCCCCC.CCCCCCCCOC(=O)COCC(=O)OCCCCCCCC.CCCCCCCCOC(=O)COCC(=O)OCCCCCCCC.CCCCCCCCOC(=O)COCC(=O)OCCCCCCCC.O=C(C=C([O-])C(F)(F)F)C(F)(F)F.O=C(C=C([O-])C(F)(F)F)C(F)(F)F.O=C(C=C([O-])C(F)(F)F)C(F)(F)F.O=C(C=C([O-])C(F)(F)F)C(F)(F)F.O=C(C=C([O-])C(F)(F)F)C(F)(F)F.O=C(C=C([O-])C(F)(F)F)C(F)(F)F.O=C(C=C([O-])C(F)(F)F)C(F)(F)F.O=C(C=C([O-])C(F)(F)F)C(F)(F)F.[Co+2].[Ho+3].[Ho+3] [MIL 15] |  |  |  |  |  |  |  |  |  | approximately 120 °C | 
CCCCCCOC(=O)COCC(=O)OCCCCCC.CCCCCCOC(=O)COCC(=O)OCCCCCC.CCCCCCOC(=O)COCC(=O)OCCCCCC.CCCCCCOC(=O)COCC(=O)OCCCCCC.CCCCCCOC(=O)COCC(=O)OCCCCCC.CCCCCCOC(=O)COCC(=O)OCCCCCC.O=C(C=C([O-])C(F)(F)F)C(F)(F)F.O=C(C=C([O-])C(F)(F)F)C(F)(F)F.O=C(C=C([O-])C(F)(F)F)C(F)(F)F.O=C(C=C([O-])C(F)(F)F)C(F)(F)F.O=C(C=C([O-])C(F)(F)F)C(F)(F)F.O=C(C=C([O-])C(F)(F)F)C(F)(F)F.[Co+2].[Co+2].[Co+2] [MIL 1] | 175.0 cP |  |  |  |  |  |  |  |  |  | 
CCCCCCCCOC(=O)COCC(=O)OCCCCCCCC.CCCCCCCCOC(=O)COCC(=O)OCCCCCCCC.CCCCCCCCOC(=O)COCC(=O)OCCCCCCCC.CCCCCCCCOC(=O)COCC(=O)OCCCCCCCC.CCCCCCCCOC(=O)COCC(=O)OCCCCCCCC.CCCCCCCCOC(=O)COCC(=O)OCCCCCCCC.O=C(C=C([O-])C(F)(F)F)C(F)(F)F.O=C(C=C([O-])C(F)(F)F)C(F)(F)F.O=C(C=C([O-])C(F)(F)F)C(F)(F)F.O=C(C=C([O-])C(F)(F)F)C(F)(F)F.O=C(C=C([O-])C(F)(F)F)C(F)(F)F.O=C(C=C([O-])C(F)(F)F)C(F)(F)F.O=C(C=C([O-])C(F)(F)F)C(F)(F)F.O=C(C=C([O-])C(F)(F)F)C(F)(F)F.[Co+2].[Gd+3].[Gd+3] [MIL 14] |  |  |  |  |  |  |  |  |  |  | approximately 120 °C
